Data from patent US11911396B2, “Use of compound in preparation of drug for treating cerebral small vessel disease” (GUANGZHOU CELLPROTEK PHARMACEUTICAL CO., LTD, priority 2017, dated 2024).

What was measured:
[1] = tested on: IL-1β; assay: Western blot of IL-1β in prefrontal cortex brain tissue, acute hypobaric hypoxia model; type: in vivo, cynomolgus monkeys; conditions: FIGS. 3A and 3B
Description: (§1) FIG. 3. […] A. Protein expression of inflammatory factors IL-6, IL-1β and TNF-α in the brain tissue of the prefrontal cortex of cynomolgus monkeys; B. Statistics of protein relative gray scan values. NN: Normobaric Normoxia group (N=3); HH: Hypobaric Hypoxia group (N=3); HH+Triol: Hypobaric Hypoxia with Triol administration group (N=3); HH+PROG: Hypobaric Hypoxia with control drug administration group (N=3). The gray value was obtained by scanning with Image Lab software, and the relative value was obtained after normalizing with α-Tubulin. One-way ANOVA analysis and Dunnutt's t test were used to perform statistical tests, and in the latter each group was compared with the HH group, *, p<0.05; **, p<0.01.
(§2) 1) Preparation of protein samples (see the instructions of M-PER protein lysate): After the cells had been processed for the specified time, the medium was aspirated and then washed with 4° C. pre-chilled PBS (0.01M pH7.2˜7.3) for 3 times. […] 2) BCA protein quantification (see the instructions of BCA protein quantification kit): corresponding components were added to a 96-well detection plate by the ratio of quantification reagent A solution:B solution:ddH2O:protein=100:2:7.5:5, and albumin standards diluted in gradient concentration were added to draw a standard curve. […] After the reaction, the absorbance of each well at a wavelength of 562 nm was detected using a microplate reader. […]

[2] = tested on: free hemoglobin; assay: Immunofluorescence of extravascular free hemoglobin in prefrontal cortex brain tissue, acute hypobaric hypoxia model; type: in vivo, cynomolgus monkeys (Macaca fascicularis); conditions: 7500 meters for 48 hours, compared with acute hypobaric hypoxia group, FIG. 1
Description: FIG. 1. Acute hypobaric hypoxia caused an increase in extravascular distribution of free hemoglobin in the brain tissue of the prefrontal cortex of cynomolgus monkeys (Macaca fascicularis). […] B. MFI (Mean Fluorescence Intensity) was quantified using Nikon NIS-Element software. The statistics of the relative fluorescence intensity of free hemoglobin distributed extravascularly in the brain tissue of cynomolgus monkeys was shown, and one-way ANOVA analysis and Dunnutt's t test were used to perform statistical tests, **, p<0.01, ns, no statistical difference, n=4. NN: Normobaric Normoxia group; HH: Hypobaric Hypoxia group; HH+Triol: Hypobaric Hypoxia with Triol administration group; HH+PROG: Hypobaric Hypoxia with control drug administration group. PROG represents the control drug progesterone.
The thickness of paraffin sections was 5 μm. For fresh paraffin sections, the sections were dried at 37° C. overnight and then dried at 55° C. for 30 minutes. The sections were quickly placed in xylene for dewaxing. […] NIS-Elements Analysis software was used to analyze the fluorescence intensity of confocal images, which was then normalized with the fluorescence intensity per unit area according to the built-in scale. […]

[3] = tested on: TNF-α; assay: Western blot of TNF-α in prefrontal cortex brain tissue, acute hypobaric hypoxia model; type: in vivo, cynomolgus monkeys; conditions: FIGS. 3A and 3B
Description: as §1, §2

C[C@@]12CCCC1C1C[C@@H](O)[C@@]3(O)C[C@@H](O)CC[C@]3(C)C1CC2 (stereo partly drawn) [Triol, 5α-androst-3β,5,6β-triol]
significantly reduced: expression level of IL-1β [1] | distribution of extravascular free hemoglobin [2] | expression level of TNF-α [3]
